Results on 27 molecules are retold here after US9051310B2, “Nicotinamide derivative or salt thereof” (FUJIFILM Corporation, priority 2011, dated 2015).

The target in assay [1] is T1, glutathione S-transferase (GST)-linked full-length human Syk protein (Homo sapiens, UniProt P43405).
T1 construct: glutathione S-transferase (GST)-linked full-length human Syk protein; purchased Carna Biosciences; host or cells: Baculovirus expression system
Description: Syk enzyme assay. It counts as biochemical. Conditions: 0.83 nM Syk, time-resolved fluorescence; read-out: IC50 of Syk-inhibitory activity. Put shortly:
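Phosphotyrosine on a biotin-peptide substrate (0.5 μM) was read by time-resolved fluorescence at 615 and 665 nm with Eu-anti-pTyr antibody and APC-streptavidin after 1 h EDTA stop.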

For assay [2], the system named is THP-1 cells (TNFα secretion on human IgG-coated plate). Description: TNFα generation assay. The assay is classed as cell-based. Conditions: IFN-γ differentiated THP-1 cells, 7 hours, AlphaLISA, read-out: IC50 of TNFα generation inhibitory activity. On the procedure:
THP-1 cells (2×10^5 cells/ml), which were human monocytoid cells, were cultured in the presence of 10 ng/ml IFN-γ (Roche) for 2 days, and they were induced to differentiate into macrophage-like cells. The differentiation-induced THP-1 cells were recovered, and the cells (1×10^6 cell/ml) were then allowed to react with a predetermined concentration of test compound at room temperature for 30 minutes. On the other hand, 100 μl of human IgG (10 μg/ml, SIGMA-ALDRICH) diluted with PBS was added to a 96-well plate, and it was then incubated at room temperature overnight. Thereafter, the resultant was washed with PBS twice to produce a human IgG-coated plate. A cell fluid that contained a compound was plated on the obtained human IgG-coated plate (5×10^4 cells/well), and it was then cultured for 7 hours. Thereafter, the cultured solution was recovered, and the amount of TNFα secreted into the culture solution was then measured by the AlphaLISA method (PerkinElmer).

Take `COc1nn(C)c2ccc(Nc3nc(N[C@@H]4CCOC[C@@H]4N)c(F)cc3C(N)=O)cc12` [Example 2-210, 6-(((3R,4R)-3-aminotetrahydro-2H-pyran-4-yl)amino)-5-fluoro-2-((3-methoxy-1-methyl-1H-indazol-5-yl)amino)nicotinamide]: the IC50 in assay [1] is under 10 nM; in assay [2] it was under 65 nM.
For `CCC[C@@H](Nc1nc(Nc2ccc3c(c2)c(OC)nn3C)c(C(N)=O)cc1F)[C@H](C)N` [Example 2-80, 6-(((2S,3R)-2-aminohexan-3-yl)amino)-5-fluoro-2-((3-methoxy-1-methyl-1H-indazol-5-yl)amino)nicotinamide], the results for the IC50 in assay [1] and in assay [2] were under 10 nM and 65 to 130 nM, respectively.
Consider `C[C@H](N)[C@H](Nc1nc(Nc2ccc3cnn(C)c3c2)c(C(N)=O)cc1F)C1CCC1` [Example 2-10, 6-(((1R,2S)-2-amino-1-cyclobutylpropyl)amino)-5-fluoro-2-((1-methyl-1H-indazol-6-yl)amino)nicotinamide], for which the IC50 in assay [1] is under 10 nM; in assay [2], under 65 nM.
For `Cc1cnn(-c2cncc(Nc3nc(N[C@H](C4CC4)[C@H](C)N)c(F)cc3C(N)=O)c2)c1` [Example 2-519, 6-(((1R,2S)-2-amino-1-cyclopropylpropyl)amino)-5-fluoro-2-((5-(4-methyl-1H-pyrazol-1-yl)pyridin-3-yl)amino)nicotinamide] the same measures were under 10 nM and 130 to 200 nM.
For `Cn1nc(F)c2cc(Nc3nc(N[C@@H]4CCOC[C@@H]4N)c(F)cc3C(N)=O)ccc21` [Example 2-209, 6-(((3R,4R)-3-aminotetrahydro-2H-pyran-4-yl)amino)-5-fluoro-2-((3-fluoro-1-methyl-1H-indazol-5-yl)amino)nicotinamide] the same measures were under 10 nM and 65 to 130 nM.
Consider `CCCC[C@@H](Nc1nc(Nc2ccc3cnn(C)c3c2)c(C(N)=O)cc1F)[C@H](C)N` [Example 2-38, 6-(((2S,3R)-2-aminoheptan-3-yl)amino)-5-fluoro-2-((1-methyl-1H-indazol-6-yl)amino)nicotinamide], for which the results for the IC50 in assay [1] and in assay [2] were under 10 nM and 65 to 130 nM, respectively.
For `CC[C@H](N)[C@@H](CC)Nc1nc(Nc2ccnc(OCCOC)c2)c(C(N)=O)cc1F` [Example 2-43, 6-(((3R,4S)-4-aminohexan-3-yl)amino)-5-fluoro-2-((2-(2-methoxyethoxy)pyridin-4-yl)amino)nicotinamide] the same measures were under 10 nM and 130 to 200 nM.
As to `CCCC[C@@H](Nc1nc(Nc2cncc(-n3cccn3)c2)c(C(N)=O)cc1F)[C@H](C)N` [Example 2-69, 2-((5-(1H-pyrazol-1-yl)pyridin-3-yl)amino)-6-(((2S,3R)-2-aminoheptan-3-yl)amino)-5-fluoronicotinamide], the IC50 fell in the range of 10 to 50 nM in assay [1] and 130 to 200 nM in assay [2].
On to `COC[C@@H](Nc1nc(Nc2ccc3c(c2)c(C)nn3C)c(C(N)=O)cc1F)[C@H](C)N` [Example 2-196, 6-(((2S,3S)-3-amino-1-methoxybutan-2-yl)amino)-2-((1,3-dimethyl-1H-indazol-5-yl)amino)-5-fluoronicotinamide], for which the IC50 is under 10 nM in assay [1] and 65 to 130 nM in assay [2].
Turning to `CCn1ncc2cc(Nc3nc(N[C@H](c4cccc(F)c4)[C@H](C)N)c(F)cc3C(N)=O)ccc21` [Example 2-413], the results for the IC50 in assay [1] and in assay [2] were under 10 nM and 65 to 130 nM, respectively.
For `NC(=O)c1cc(F)c(N[C@@H]2CCCC[C@@H]2N)nc1Nc1cnc(-n2nccn2)c(F)c1` [Example 2-67, 6-(((1R,2S)-2-aminocyolohexyl)amino)-5-fluoro-2-((5-fluoro-6-(2H-1,2,3-triazol-2-yl)pyridin-3-yl)amino)nicotinamide], the IC50 in assay [1] lay in the range of 10 to 50 nM; in assay [2], 130 to 200 nM.
The corresponding values for `COCCOc1cc(Nc2nc(N[C@H](C3CCC3)[C@H](C)N)c(F)cc2C(N)=O)ccn1` [Example 2-7, 6-(((1R,2S)-2-amino-1-cyclobutylpropyl)amino)-5-fluoro-2-((2-(2-methoxyethoxy)pyridin-4-yl)amino)nicotinamide] are under 10 nM and 65 to 130 nM.
`CC(C)C[C@@H](Nc1nc(Nc2ccc3cnn(C)c3c2)c(C(N)=O)cc1F)[C@H](C)N` [Example 2-37, 6-(((2S,3R)-2-amino-5-methylhexan-3-yl)amino)-5-fluoro-2-((1-methyl-1H-indazol-6-yl)amino)nicotinamide]: the IC50 in assay [1] was under 10 nM; in assay [2] it was 65 to 130 nM.
Regarding `COc1nn(C)c2ncc(Nc3nc(N[C@@H]4CCCC[C@@H]4N)c(F)cc3C(N)=O)cc12` [Example 2-249, 6-(((1R,2S)-2-aminocyclohexyl)amino)-5-fluoro-2-((3-methoxy-1-methyl-1H-pyrazolo[3,4-b]pyridin-5-yl)amino)nicotinamide], the IC50 in assay [1] is under 10 nM; in assay [2] it was 65 to 130 nM.
Regarding `Cc1nn(C)c2ncc(Nc3nc(N[C@@H]4CCCC[C@@H]4N)c(F)cc3C(N)=O)cc12` [Example 2-239, 6-(((1R,2S)-2-aminocyclohexyl)amino)-2-((1,3-dimethyl-1H-pyrazolo[3,4-b]pyridin-5-yl)amino)-5-fluoronicotinamide], the IC50 in assay [1] is 10 to 50 nM; in assay [2], 130 to 200 nM.
Take `COc1cc(Nc2nc(N[C@H](C3CCC3)[C@H](C)N)c(F)cc2C(N)=O)ccc1C` [Example 2-30, 6-(((1R,2S)-2-amino-1-cyclobutylpropyl)amino)-5-Fluoro-2-((3-methoxy-4-methylphenyl)amino)nicotinamide]: in assay [1], the IC50 was under 10 nM.
On the same count and under the same terms, the same measure for `CC[C@@H](Nc1nc(Nc2ccc3nn(C)c(N(C)C)c3c2)c(C(N)=O)cc1F)[C@H](C)N` [Example 2-16, 6-(((2S,3R)-2-aminopentan-3-yl)amino)-2-((3-(dimethylamino)-2-methyl-2H-indazol-5-yl)amino)-5-fluoronicotinamide]: 10 to 50 nM; for `CC[C@@H](Nc1nc(Nc2ccc3c(c2)c(NCCOC)nn3CCOC)c(C(N)=O)cc1F)[C@H](C)N` [Example 2-536, 6-(((2S,3R)-2-aminopentan-3-yl)amino)-5-fluoro-2-((1-(2-methoxyethyl)-3-((2-methoxyethyl)amino)-1H-indazol-5-yl)amino)nicotinamide]: 10 to 50 nM.
For `CC[C@@H](Nc1nc(Nc2cncc3c2cnn3CC(F)F)c(C(N)=O)cc1F)[C@H](C)N` [Example 2-396, 6-(((2S,3R)-2-aminopentan-3-yl)amino)-2-((1-(2,2-difluoroethyl)-1H-pyrazolo[3,4-c]pyridin-4-yl)amino)-5-fluoronicotinamide], the IC50 in assay [1] was under 10 nM.
With `CCOC[C@@H](Nc1nc(Nc2cccc3c2cnn3CCOC)c(C(N)=O)cc1F)[C@H](C)N` [Example 2-310, 6-(((2S,3S)-3-amino-1-ethoxybutan-2-yl)amino)-5-fluoro-2-((1-(2-methoxyethyl)-1H-indazol-4-yl)amino)nicotinamide], the IC50 in assay [1] lay in the range of 50 to 100 nM.
Take `Cc1ncc(Nc2nc(N[C@H](Cc3ccccc3)[C@H](C)N)c(F)cc2C(N)=O)cc1F` [Example 2-426, 6-(((2R,3S)-3-amino-1-phenylbutan-2-yl)amino)-5-fluoro-2-((5-fluoro-6-methylpyridin-3-yl)amino)nicotinamide]: the IC50 in assay [1] fell in the range of 10 to 50 nM.
Take `CCC[C@@H](Nc1nc(Nc2ccc3c(c2)c(N(C)CCOC)nn3C)c(C(N)=O)cc1F)[C@H](C)N` [Example 2-459, 6-(((2S,3R)-2-aminohexan-3-yl)amino)-5-fluoro-2-((3-((2-methoxyethyl)(methyl)amino)-1-methyl-1H-indazol-5-yl)amino)nicotinamide]: in assay [1], the IC50 lay within 10 to 50 nM.
Regarding `CC(C)C[C@@H](Nc1nc(Nc2cnc(N3CCOCC3)c(F)c2)c(C(N)=O)cc1F)[C@H](C)N` [Example 2-237, 6-(((2S,3R)-2-amino-5-methylhexan-3-yl)amino)-5-fluoro-2-((5-fluoro-6-morpholinopyridin-3-yl)amino)nicotinamide], the IC50 in assay [1] fell in the range of 10 to 50 nM.
As to `CCc1cccc(Nc2nc(N[C@@H]3CCCC[C@@H]3N)c(F)cc2C(N)=O)c1` [Example 2-450, 6-(((1R,2S)-2-aminocyclohexyl)amino)-2-((3-ethylphenyl)amino)-5-fluoronicotinamide], the IC50 in assay [1] was under 10 nM.
Regarding `Cc1ncc(Nc2nc(N[C@H](c3ccc(C(F)(F)F)cc3)[C@H](C)N)c(F)cc2C(N)=O)cc1-n1nccn1` [Example 2-354, 6-(((1R,2S)-2-amino-1-(4-(trifluoromethyl)phenyl)propyl)amino)-5-fluoro-2-((6-methyl-5-(2H-1,2,3-triazol-2-yl)pyridin-3-yl)amino)nicotinamide], in assay [1], the IC50 lay within 10 to 50 nM.
The same measure, in the same setting: the same measure for `CCC[C@@H](Nc1nc(Nc2cnc3c(c2)c(N(C)C)nn3C)c(C(N)=O)cc1F)[C@H](C)N` [Example 2-289, 6-(((2S,3R)-2-aminohexan-3-yl)amino)-2-((3-(dimethylamino)-1-methyl-1H-pyrazolo[3,4-b]pyridin-5-yl)amino)-5-fluoronicotinamide]: under 10 nM; for `COc1ncc(Nc2nc(N[C@H](CC(C)C)[C@H](C)N)c(F)cc2C(N)=O)cc1-n1nccn1` [Example 2-112, 6-(((2S,3R)-2-amino-5-methylhexan-3-yl)amino)-5-fluoro-2-((6-methoxy-5-(2H-1,2,3-triazol-2-yl)pyridin-3-yl)amino)nicotinamide]: 10 to 50 nM.
